Experimental data taken from US12071469B2, “Peptide compounds for suppressing inflammation” (Duke University, priority 2011, dated 2024).

Assays:
[1] = tested on: mice with intracerebral hemorrhage; assay: Rotorod vestibulomotor function after intracerebral hemorrhage (collagenase injection); format: in vivo, mouse; conditions: 0.05 mg/kg iv at 2 h and 6 h after intracerebral hemorrhage
Description: An experimental murine model for intracerebral hemorrhage was also provided. James, et al. (2009) Stroke, 40:632-39. Male mice (age 16-20 weeks) were anesthetized with 4.6% isoflurane in oxygen in an anesthesia induction box for 90 seconds. The trachea was intubated and the lungs mechanically ventilated with 1.6% isoflurane in a 70/30 mixture of nitrogen/oxygen. Body temperature was maintained at 37° C. using an underbody warming system. The animal's head was secured in a stereotactic frame, local anesthetic was injected, and the scalp incised. […]
An experimental procedure for measuring neurological deficits was developed. […] The average time to fall from the rotating cylinder in the latter three trials was recorded as baseline latency. […] Average latency to fall from the rod was recorded, and mice unable to grip the rod were scored with a latency of 0 seconds.
Groups of mice received either an ApoE mimetic peptide (SEQ ID NO:4; 0.05 mg/kg) or carrier (saline) by intravenous tail vein injection a 2 hours and again at 6 hours after intracerebral hemorrhage induced as described in Example 3. Each mouse was tested for vestibulomotor function by rotorod latency measured before and after induced intracerebral hemorrhage as described in Example 3.

[2] = VSRRR quantitation in mouse plasma by LC/SIM/MS after intravenous dosing; format: in vivo; conditions: IV single dose 0.8 mg/kg
Description: The amount of the ApoE mimetic peptide VSRRR (SEQ ID NO:4) in blood plasma and CNS was determined as follows:
VSRRR Quantitation in Mouse Plasma Using LC/Selected Ion Monitoring (SIM)/MS
48 μL aliquots of mouse plasma were measured into the wells of a 2 mL 96-well plate. 6 μL of a stable isotope labeled (SIL) form of the VSRRR peptide (“VSRRR[10]”; SEQ ID NO:4) (5 picomoles/μL in 50 mM ammonium bicarbonate, pH 8, buffer) was added. 6 μL of a synthetic form of the VSRRR peptide (“VSRRR”; SEQ ID NO:4) in 50 mM Ammonium bicarbonate was added for standards and quality controls (QCs) and an equivalent volume of 50 mM ammonium bicarbonate was added to all wells containing mouse PK samples. 1140 μL of 50 mM ammonium formate, pH 10, was added for a final volume of 1200 μL. Salts and proteins were removed using OASIS® HLB Solid Phase Extraction (SPE) protocol as follows: • 1. 500 μL methanol (MeOH) through each well×1. • 2. 500 μL 25% acetonitrile (ACN)/1% trifluoroacetic acid (TFA)×1 (as pre-elution). • 3. 500 μL MeOH×1 • 4. 500 μL 50 mM ammonium formate×2 • 5. 1 mL of each sample mixture was pipetted directly onto an OASIS® HLB plate (hydrophilic-lipophilic-balanced reversed-phase sorbent; Waters Corp.) into a corresponding well and slowly vacuumed through • 6. 500 μL 50 mM ammonium formate×1 • 7. 500 μL 10% ACN/50 mM ammonium formate×2 • 8. 500 μL 25% ACN/50 mM ammonium formate×1 • 9. Removed plate collecting washes/flowthrough, and put in collection plate • 10. Eluted with 100 μL 25% ACN/1% TFA×3, eluting with vacuum slowly. The final eluate should be approximately 300 μL.
The SPE eluate was dried using a vacuum centrifuge. The sample was reconstituted in 50 μL of buffer containing 1% acetonitrile (ACN), 0.1% trifluoroacetic acid (TFA), and 0.02% heptafluorobutyric acid (HFBA). Two microliters of reconstituted sample was analyzed by nanoscale capillary LC coupled to a high resolution, accurate mass tandem mass spectrometer. Specifically, the electrospray ionization source with NanoLockSpray™ (Waters Corp.) and nanoAcquity UPLC® system (Waters Corp.) were used with a nanoscale LC column (1.7 μm BEH130 C18 150 μm ID×100 mm long; Waters Corp.), 10-min gradient of 3% to 19% ACN with 0.1% formic acid (mobile phase A=0.1% formic acid/0.001% HFBA) with a total LC run time of 16.5 minutes, flow rate=1.8 μL/min and 35° C. column temperature. A SYNAPT™ G1 HDMS™ high resolution mass spectrometer (Waters Corp.) was used. Full Scan MS data was obtained over the mass region of 50-4000 Da using an Enhanced Duty Cycle scan function at 360 Da.
VSRRR and VSRRR[10] amounts were quantitated by measuring the area under the curve (AUC) of the Selected Ion Chromatograms of the doubly charged ions at high resolution (m/z 357.7 and 362.7). The final VSRRR quantitation amount was determined using the ratio of the AUCs (VSRRR/VSRRR[10]). The ratios from 5 animals were averaged per time point and calibration standards were used to generate a standard curve. Duplicate aliquots of QC samples were analyzed by LC/MS in triplicate to determine analytical reproducibility.
The lower level of quantitation (LLOQ) is indicated.

For Ac-VSRRR-NH2 [VR-55, Ac-VSRRR-NH2], the “durability of effect on rotorod latency” value [1] was “durable through the five-day testing period”, the “vestibulomotor performance (rotorod latency) compared to carrier” value ([1]; FIG. 5) was “improved vestibulomotor performance” and the “Ratio Light/Heavy across 5 animals” value ([2]; 1 min) was 0.079. The “amount of peptide in plasma” value ([2]; 1 min) was 32.2 fmol/µL, the “Ratio Light/Heavy across 5 animals” value ([2]; 3 min) was 0.134 and the “amount of peptide in plasma” value ([2]; 3 min) was 51.8 fmol/µL. The “Ratio Light/Heavy across 5 animals” value ([2]; 5 min) was 0.077, the “amount of peptide in plasma” value ([2]; 5 min) was 31.7 fmol/µL and the “Ratio Light/Heavy across 5 animals” value ([2]; 10 min) was 0.058. The “amount of peptide in plasma” value ([2]; 10 min) was 24.9 fmol/µL, the “Ratio Light/Heavy across 5 animals” value ([2]; 15 min) was 0.044 and the “amount of peptide in plasma” value ([2]; 15 min) was 19.6 fmol/µL. The “Ratio Light/Heavy across 5 animals” value ([2]; 30 min) was 0.016, the “amount of peptide in plasma” value ([2]; 30 min) was 9.9 fmol/µL and the “Ratio Light/Heavy across 5 animals” value ([2]; 60 min) was 0.012. The “amount of peptide in plasma” value ([2]; 60 min) was 8.5 fmol/µL.
